According to patent publication US20180169045A1, “AMINO ACID COMPOSITIONS AND METHODS FOR THE TREATMENT OF LIVER DISEASES” (AXCELLA HEALTH INC., priority 2016, published 2018):

Columns and labels:
[1] = test system: Primary human hepatic stellate cells; assay: TGFβ1-induced procollagen Iα1 secretion in primary human hepatic stellate cells (ELISA); format: cell-based; conditions: for procollagen Iα1 secretion, in words: primary human hepatic stellate cells from three donors, 3 ng/mL TGFβ1, 24 h
Description: Primary human hepatic stellate cells were obtained from Samsara Sciences based on the following criteria for selecting donors: adult age (between 18 and 50 years), normal BMI (>18.5 and <25), and absence of confounding liver disease. Cells grown in Complete HSC Medium to ˜80% confluence in T75 or T150 flasks below passage 10 were seeded into sterile, collagen I coated, 96-well optical plastic microplates (ThermoScientific, 152036) at 6000 cells per well ([…]) and incubated overnight at 37° C., 5% CO2 in a humidified incubator in DMEM with 2% Fetal Bovine Serum and 1% Antibiotic-Antimycotic.
After the overnight incubation, plates were removed from the incubator and the medium was gently pipetted off and washed twice with 150 μL per well DPBS. The DPBS was removed and the pretreatment medium (±single amino acid dropout, 1×HMDB DMEM+1% Antibiotic-Antimycotic, 10 mM HEPES, ±supplemental amino acid dose; see experiment for medium composition) was applied to the cells at 150 μL per well. Plates were returned to the incubator for 10.5 hours.
After 10.5 hour pretreatment, the medium was removed from the cells, and the same pretreatment medium, now supplemented with 3 ng/mL TGFβ1, was applied. Each plate contained 3 ng/mL TGFβ1 in 1× human plasma amino acid (HMDB or PAA) concentration medium, 0 ng/mL in 1×HMDB, and 3 ng/mL TGFβ1+20 μM Silybin in 1×HMDB to serve as controls. Plates were then incubated for 24 hours at 37° C., 5% CO2.
After 24 hour stimulus, supernatant was removed and frozen at −80° C. in two separate aliquots. The cells were then washed with 125 μL per well Buffer FCW (FastLane Cell Multiplex NR Kit, Qiagen, 216713). The wash buffer was immediately removed and 50 μL of Cell Processing Mix (containing genomic DNA Wipeout buffer) was applied to lyse cells, incubating for 10 minutes at room temperature. RNA lysate was then transferred to 96-well qPCR plates, sealed, and gDNA was digested on thermal cycler at 75° C. for 5 minutes. RNA lysate was frozen at −80° C.
Human Procollagen Iα1 was measured from the supernatant by ELISA (Human Pro-Collagen I alpha 1 DuoSet ELISA, R&D Systems) at 1/100 dilution in 1× Reagent Diluent (Reagent Ancillary Kit 2, R&D Systems).

[2] = test system: Primary human PMBC derived macrophages; assay: LPS-induced IL-6 secretion in primary human monocyte-derived macrophages (ELISA); format: cell-based; set-up: IL-6 Measurements, Mean: unit not given here; conditions: for IL-6 Measurements, Mean: Donor 1, baseline subtracted values; for IL-6 Measurements Mean (baseline subtracted): LPS 0.15 ng/mL; for LPS-induced IL-6 secretion, in words: primary human monocyte-derived macrophages
Description: Isolation of Peripheral Blood Mononuclear Cell (PBMC) Unpurified buffy coats (Research Blood Components) were carefully poured into 50 mL centrifuge tubes and diluted with room temperature Dulbecco's Phosphate Buffered Saline (dPBS) with Calcium and Magnesium (Gibco). Diluted buffy coats were further divided into four total 50 mL centrifuge tubes at 20 mL per tube. Lymphocyte Separation Medium (Corning) was carefully pipetted to the bottom of each centrifuge tube. Mixtures were centrifuged at 850×g for 32 minutes at 20° C. with 0 deceleration and acceleration.
CD14+ cells were selected using EasySep™ Human CD14 Positive Selection Kit II ([…] Technologies). Cells were resuspended in cold EasySep™ Buffer ([…] Technologies) at 1×10^8 cells/mL. A total of 100 uL/mL EasySep™ Human CD14 Positive Selection Cocktail II was added to the cell suspension, mixed, and incubated at room temperature for 10 minutes. A total of 100 uL/mL RapidSpheres were added to the mixture and incubated at room temperature for 3 minutes after mixing, then RoboSep buffer was added to bring up the total volume to 10 mL. The mixture in a 15 mL tube was placed in magnet and incubated at room temperature for 3 minutes. Supernatant was discarded and 10 mL fresh EasySep™ buffer was added to 15 mL tube. The addition of RoboSep buffer, mixing, and discarding of supernatant was repeated two more times.
Negative and positive fractions were centrifuged at 490×g for 5 minutes at 20° C. with acceleration of 9, deceleration of 9, and resuspended in DMEM (Gibco) and 10% Heat Inactivated Fetal Bovine Serum (Atlanta Bio) and Penicillin/Streptomycin. Cells were counted and centrifuged again at 490×g for 5 minutes at 20° C. with acceleration of 9, deceleration of 9. After centrifugation, cell were resuspended in DMEM (Gibco) and 10% Heat Inactivated Fetal Bovine Serum (Atlanta Bio) and Penicillin/Streptomycin containing 500 U/mL […] and plated at 1-2×10^6 cells/mL on 10 cm tissue culture plates. Cells were kept in 37° C., 5% CO2 in between feedings/harvest.
Cells were fed every 3-4 days by removing media and unattached cells, centrifuging at 490×g for 5 minutes at 20 C with acceleration of 9, deceleration of 9, and resuspending in fresh DMEM (Gibco) and 10% Heat Inactivated Fetal Bovine Serum (Atlanta Bio) and Penicillin/Streptomycincontaining 500 U/mL GM-CSF. Resuspended cells were seeded back onto 10 cm tissue culture plates and incubated at 37° C., 5% CO2.
After complete cell attachment, culture supernatant was removed and cultures were washed 1× with 5 mL PBS. A total of 3 mL room temperature Cellstripper was added and cultures were incubated at 37° C., 5% CO2 for approximately 10 minutes until cells were rounded and beginning to detach. Cell scraper was used to completely detach cells from plate. Collected cell were spun down at 490 g for 5 min at room temperature and resuspended in 10% DMSO in Heat Inactivated Fetal Bovine Serum and immediately frozen in −80 C.
Primary human PMBC derived macrophages were seeded on day 0 at 3.0E4 cells per well in 96-well microplates (ThermoFisher) in Dulbecco's Modified Eagle Medium (DMEM) (Gibco) supplemented with penicillin-streptomycin (Hyclone) and 10% heat inactivated fetal bovine serum (HI-FBS) (Atlanta Bio) and incubated overnight at 37° C., 5% CO2. On day 1, cells were washed once with 150 uL per well DPBS (Gibco) and treated with 75 uL of: • a. Amino acid free DMEM (US Biologicals) containing a defined custom amino acid concentration based on the mean physiological concentrations in blood based on values published in the Human Metabolome Database (HMDB), with 6 mM glucose, 1 mM sodium pyruvate, 10 mM HEPES, 0.2% primocin (InVivoGen); or • b. The same medium described above with one amino acid at various concentrations including complete dropout. […]

CC(C)[C@H](N)C(=O)O [Valine, L-Valine]
Procollagen Iα1 Secretion (Fold Change of 1X), Mean ([1]; first donor, Conc. 234 μM (baseline)): 1.0000 fold
procollagen Iα1 secretion, in words [1]: significantly increased procollagen Iα1 secretion in only one of two donors
Procollagen Iα1 Secretion (Fold Change of 1X), Mean ([1]; second donor, Conc. 234 μM (baseline)): 1.0000 fold
Procollagen Iα1 Secretion (Fold Change of 1X), Mean ([1]; third donor, Conc. 234 μM (baseline)): 1.0000 fold
IL-6 Measurements, Mean ([2]; Conc. 4684 μM): −85.9843
IL-6 Measurements, Mean ([2]; Conc. 11710 μM): −97.25
IL-6 Measurements, Mean ([2]; Conc. 23420 μM): −106.268
IL-6 Measurements Mean (baseline subtracted) ([2]; Donor 3, Conc. 234 μM (baseline)): 4.26E−14
IL-6 Measurements Mean (baseline subtracted) ([2]; Donor 3, Conc. 4684 μM): −30.0609
IL-6 Measurements Mean (baseline subtracted) ([2]; Donor 3, Conc. 11710 μM): −43.8022
IL-6 Measurements Mean (baseline subtracted) ([2]; Donor 3, Conc. 23420 μM): −29.2004

N=C(N)NCCC[C@H](N)C(=O)O [Arginine, L-Arginine]
Procollagen Iα1 Secretion (Fold Change of 1X), Mean ([1]; first donor, Conc. 109 μM (baseline)): 1.0000 fold
procollagen Iα1 secretion, in words [1]: significantly increased procollagen Iα1 secretion in two of three donors
Procollagen Iα1 Secretion (Fold Change of 1X), Mean ([1]; second donor, Conc. 109 μM (baseline)): 1.0000 fold
Procollagen Iα1 Secretion (Fold Change of 1X), Mean ([1]; third donor, Conc. 109 μM (baseline)): 1.0000 fold
LPS-induced IL-6 secretion, in words ([2]; Donor 1, 0.15 ng/mL LPS): increased

NC(=O)CC[C@H](N)C(=O)O [Glutamine, L-Glutamine]
Procollagen Iα1 Secretion (Fold Change of 1X), Mean ([1]; first donor, Conc. 562 μM (baseline)): 1.0000 fold
procollagen Iα1 secretion, in words [1]: did not have a significant impact
Procollagen Iα1 Secretion (Fold Change of 1X), Mean ([1]; second donor, Conc. 562 μM (baseline)): 1.0000 fold
Procollagen Iα1 Secretion (Fold Change of 1X), Mean ([1]; third donor, Conc. 562 μM (baseline)): 1.0000 fold
IL-6 Measurements, Mean ([2]; Conc. 3747 μM): 291.5443
IL-6 Measurements, Mean ([2]; Conc. 11242 μM): 397.1745
IL-6 Measurements, Mean ([2]; Conc. 22484 μM): 440.1437
IL-6 Measurements Mean (baseline subtracted) ([2]; Donor 3, Conc. 749 μM (baseline)): 3.79E−14
IL-6 Measurements Mean (baseline subtracted) ([2]; Donor 3, Conc. 3747 μM): 25.35
IL-6 Measurements Mean (baseline subtracted) ([2]; Donor 3, Conc. 11242 μM): 98.4903
IL-6 Measurements Mean (baseline subtracted) ([2]; Donor 3, Conc. 22484 μM): 108.5158
LPS-induced IL-6 secretion, in words ([2]; Donor 1, 0.15 ng/mL LPS): increased
LPS-induced IL-6 secretion, in words ([2]; Donor 2, 0.15 ng/mL LPS): increased
LPS-induced IL-6 secretion, in words ([2]; Donor 3, 0.15 ng/mL LPS): significantly increased

CC(C)C[C@H](N)C(=O)O [Leucine, L-Leucine]
Procollagen Iα1 Secretion (Fold Change of 1X), Mean ([1]; first donor, Conc. 153 μM (baseline)): 1.0000 fold
Procollagen Iα1 Secretion (Fold Change of 1X), Mean ([1]; second donor, Conc. 153 μM (baseline)): 1.0000 fold
Procollagen Iα1 Secretion (Fold Change of 1X), Mean ([1]; third donor, Conc. 153 μM (baseline)): 1.0000 fold
IL-6 Measurements, Mean ([2]; Conc. 3054 μM): 244.9743
IL-6 Measurements, Mean ([2]; Conc. 7635 μM): −69.9873
IL-6 Measurements, Mean ([2]; Conc. 15270 μM): 84.46
LPS-induced IL-6 secretion, in words ([2]; Donor 2, 0.15 ng/mL LPS): increased

CC(=O)N[C@@H](CS)C(=O)O [N-acetylcysteine]
procollagen Iα1 secretion, in words [1]: significantly decrease procollagen Iα1 secretion in two of the three donors
IL-6 Measurements, Mean ([2]; Conc. 5 X): 308.1772
IL-6 Measurements, Mean ([2]; Conc. 10 X): −121.142
IL-6 Measurements, Mean ([2]; Conc. 20 X): −553.802
IL-6 Measurements, Mean ([2]; Conc. 40 X): −914.194
IL-6 Measurements Mean (baseline subtracted) ([2]; Donor 2, Conc. 0 X (baseline)): −2.4E−15
IL-6 Measurements Mean (baseline subtracted) ([2]; Donor 2, Conc. 20 X): −24.9999
IL-6 Measurements Mean (baseline subtracted) ([2]; Donor 3, Conc. 0 X (baseline)): −9.5E−15
IL-6 Measurements Mean (baseline subtracted) ([2]; Donor 3, Conc. 5 X): −70.3269
IL-6 Measurements Mean (baseline subtracted) ([2]; Donor 3, Conc. 10 X): −103.586
IL-6 Measurements Mean (baseline subtracted) ([2]; Donor 3, Conc. 20 X): −122.656
IL-6 Measurements Mean (baseline subtracted) ([2]; Donor 3, Conc. 40 X): −140.851
LPS-induced IL-6 secretion, in words ([2]; Donor 1, 0.15 ng/mL LPS): significantly reduced
LPS-induced IL-6 secretion, in words ([2]; Donor 2, 0.15 ng/mL LPS): significantly reduced
LPS-induced IL-6 secretion, in words ([2]; Donor 3, 0.15 ng/mL LPS): significantly reduced

CC[C@H](C)[C@H](N)C(=O)O [Isoleucine, L-Isoleucine]
procollagen Iα1 secretion, in words [1]: significantly increased procollagen Iα1 secretion in two of three donors
Procollagen Iα1 Secretion (Fold Change of 1X), Mean ([1]; second donor, Conc. 66 μM (baseline)): 1.0000 fold
Procollagen Iα1 Secretion (Fold Change of 1X), Mean ([1]; third donor, Conc. 66 μM (baseline)): 1.0000 fold
IL-6 Measurements, Mean ([2]; Conc. 1328 μM): 25.98
IL-6 Measurements, Mean ([2]; Conc. 3320 μM): −15.8843
IL-6 Measurements, Mean ([2]; Conc. 6639 μM): −218.332
IL-6 Measurements Mean (baseline subtracted) ([2]; Donor 3, Conc. 66 μM (baseline)): −6.69
IL-6 Measurements Mean (baseline subtracted) ([2]; Donor 3, Conc. 1328 μM): −28.9897
IL-6 Measurements Mean (baseline subtracted) ([2]; Donor 3, Conc. 6639 μM): −16.3663
